Laboratory results as given in patent US10570096B2, “Diamino pyridine derivatives” (NOVARTIS AG, priority 2015, dated 2020).

Columns and labels:
Type in all cases: biochemical
[1] = biological target: T1, JAK1 (Homo sapiens, UniProt P23458); assay: Enzymatic JAK assay (Caliper mobility shift), JAK1; conditions: GST-JAK1 (866-1154) kinase domain, 16 nM enzyme, 70 μM ATP (KmATP), 30° C., 60 minutes
T1 construct: GST-fusions of the active kinase domains (GST-JAK1 (866-1154)); host or cells: insect cells
Procedure: (§1) Enzymatic JAK assays. For enzyme assays affinity-purified GST-fusions of the active kinase domains (GST-JAK1 (866-1154), GST-JAK2 (808-1132), GST-JAK3 (811-1124), and GST-TYK2(888-1187) were expressed in insect cells or purchased from Invitrogen (Carlsbad, USA). All assays were performed in 384-well microtiter plates with 8-point serial dilutions of compounds. The kinase reactions were started by stepwise addition of 4.5 μl per well of a 2× peptide/ATP-solution and 4.5 μl per well of a 2× enzyme solution. The final ATP concentration used in the assays corresponds to the individually determined KmATP for the respective enzyme. Assay buffer: 50 mM HEPES, pH 7.5, 1 mM DTT, 0.02% Tween20, 0.02% BSA, 0.6% DMSO, 10 mM beta-glycerophosphate, and 10 μM sodium orthovanadate. Other components were adjusted specifically for the respective kinase assays: JAK1: 16 nM enzyme, 70 μM ATP, 2 μM peptide substrate, 12 mM MgCl2. JAK2: 1.8 nM enzyme, 20 μM ATP, 2 μM peptide substrate, 9 mM MgCl2. JAK3: 13 nM enzyme, 18 μM ATP, 2 μM peptide substrate, 1.5 mM MgCl2. Tyk2: 3.5 nM enzyme, 35 μM ATP, 2 μM peptide substrate, 9 mM MgCl2. […] Phosphorylated and unphosphorylated peptides were separated using the Caliper microfluidic mobility shift technology on a Caliper LC3000 workstation and kinase activities were calculated from the amounts of formed phospho-peptide.

[2] = biological target: T2, JAK2 (Homo sapiens, UniProt O60674); assay: Enzymatic JAK assay (Caliper mobility shift), JAK2; conditions: GST-JAK2 (808-1132) kinase domain, 1.8 nM enzyme, 20 μM ATP (KmATP), 30° C., 60 minutes
T2 construct: GST-JAK2 (808-1132); host or cells: insect cells
Procedure: as §1

[3] = biological target: T3, JAK3 (Homo sapiens, UniProt P52333); assay: Enzymatic JAK assay (Caliper mobility shift), JAK3; conditions: GST-JAK3 (811-1124) kinase domain, 13 nM enzyme, 18 μM ATP (KmATP), 30° C., 60 minutes
T3 construct: GST-JAK3 (811-1124); host or cells: insect cells
Procedure: as §1

[4] = biological target: T4, Tyk2 (Homo sapiens, UniProt P29597); assay: Enzymatic JAK assay (Caliper mobility shift), Tyk2; conditions: GST-TYK2(888-1187) kinase domain, 3.5 nM enzyme, 35 μM ATP (KmATP), 30° C., 60 minutes
T4 construct: GST-TYK2(888-1187); host or cells: insect cells
T4 sequence (P29597 888-1187): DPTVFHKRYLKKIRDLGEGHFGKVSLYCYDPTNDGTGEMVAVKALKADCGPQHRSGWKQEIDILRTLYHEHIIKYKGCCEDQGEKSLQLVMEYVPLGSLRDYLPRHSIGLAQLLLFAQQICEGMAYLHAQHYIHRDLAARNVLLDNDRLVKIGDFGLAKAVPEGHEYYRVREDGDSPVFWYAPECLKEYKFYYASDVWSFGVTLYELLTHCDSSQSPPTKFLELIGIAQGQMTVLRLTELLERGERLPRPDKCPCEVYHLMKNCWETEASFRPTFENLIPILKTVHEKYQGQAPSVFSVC
Procedure: as §1

T1 sequence (P23458 866-1154): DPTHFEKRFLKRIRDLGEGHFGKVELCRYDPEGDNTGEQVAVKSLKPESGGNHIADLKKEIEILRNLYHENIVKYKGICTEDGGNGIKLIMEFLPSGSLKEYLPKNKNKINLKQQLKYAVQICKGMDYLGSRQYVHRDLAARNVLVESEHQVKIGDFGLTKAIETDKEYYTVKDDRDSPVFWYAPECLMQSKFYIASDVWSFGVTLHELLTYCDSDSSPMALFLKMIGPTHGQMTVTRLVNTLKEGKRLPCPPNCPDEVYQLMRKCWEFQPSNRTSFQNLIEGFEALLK
T2 sequence (O60674 808-1132): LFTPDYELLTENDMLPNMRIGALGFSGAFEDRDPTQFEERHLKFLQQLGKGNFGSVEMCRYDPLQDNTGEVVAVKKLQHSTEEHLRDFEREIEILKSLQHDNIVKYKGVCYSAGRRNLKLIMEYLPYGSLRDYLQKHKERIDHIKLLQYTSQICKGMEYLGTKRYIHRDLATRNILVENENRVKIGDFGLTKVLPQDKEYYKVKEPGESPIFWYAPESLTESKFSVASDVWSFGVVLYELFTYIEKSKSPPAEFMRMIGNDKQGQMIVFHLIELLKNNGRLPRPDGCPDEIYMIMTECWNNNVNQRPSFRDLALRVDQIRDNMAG
T3 sequence (P52333 811-1124): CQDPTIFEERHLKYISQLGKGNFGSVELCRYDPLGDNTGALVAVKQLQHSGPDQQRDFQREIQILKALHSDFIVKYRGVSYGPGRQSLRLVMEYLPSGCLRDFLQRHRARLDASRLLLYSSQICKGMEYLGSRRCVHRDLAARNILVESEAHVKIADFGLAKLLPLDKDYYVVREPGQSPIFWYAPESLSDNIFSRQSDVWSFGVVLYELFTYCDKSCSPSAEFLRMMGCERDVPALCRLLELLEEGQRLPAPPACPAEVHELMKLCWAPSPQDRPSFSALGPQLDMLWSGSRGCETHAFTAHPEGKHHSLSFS

Structure (SMILES) | IC50 [1] | IC50 [2] | IC50 [3] | IC50 [4]
NC(=O)c1cnc(Nc2ccccn2)cc1Nc1ccccc1Cl [Example 1, 4-((2-chlorophenyl)amino)-6-(pyridin-2-ylamino)nicotinamide] | 18 nM | 14 nM | 9 nM | 14 nM
Cc1cccc(Nc2cc(Nc3ccccc3Cl)c(C(N)=O)cn2)n1 [Example 2, 4-((2-chlorophenyl)amino)-6-((6-methylpyridin-2-yl)amino)nicotinamide] | 12 nM | 25 nM | 15 nM | 24 nM
